Test results from ChEMBL document CHEMBL3045012, “Quinoline-based azetidinone and thiazolidinone analogues as antimicrobial and antituberculosis agents” (2013).
In brackets after ≈: the same amount, converted by molar mass.

Legend:
Assay type in all cases: functional
[1] = system: Mycobacterium tuberculosis; assay: Antituberculosis activity against Mycobacterium tuberculosis H37Rv assessed as growth inhibition after 12 to 28 days by L-J MIC method; conditions: for MIC: Mycobacterium tuberculosis, H37Rv
Candida albicans [2] = assay: Antimicrobial activity against Candida albicans MTCC 183 assessed as growth inhibition after 48 hr by agar streak dilution technique; conditions: MTCC 183, 48 h
Aspergillus niger [3] = assay: Antimicrobial activity against Aspergillus niger MTCC 282 assessed as diameter of growth inhibition zone after 24 hr by paper disk diffusion technique
Bacillus subtilis [4] = assay: Antimicrobial activity against Bacillus subtilis MTCC 430 assessed as growth inhibition after 24 hr by agar streak dilution technique; conditions: MTCC 430, 24 h
Staphylococcus aureus [5] = assay: Antimicrobial activity against Staphylococcus aureus MTCC 96 assessed as diameter of growth inhibition zone after 24 hr by paper disk diffusion technique
Escherichia coli [6] = assay: Antimicrobial activity against Escherichia coli MTCC 739 assessed as growth inhibition after 24 hr by agar streak dilution technique; conditions: MTCC 739, 24 h
Pseudomonas aeruginosa [7] = assay: Antimicrobial activity against Pseudomonas aeruginosa MTCC 741 assessed as diameter of growth inhibition zone after 24 hr by paper disk diffusion technique
Staphylococcus aureus [8] = assay: Antimicrobial activity against Staphylococcus aureus MTCC 96 assessed as growth inhibition after 24 hr by agar streak dilution technique; conditions: MTCC 96, 24 h
Escherichia coli [9] = assay: Antimicrobial activity against Escherichia coli MTCC 739 assessed as diameter of growth inhibition zone after 24 hr by paper disk diffusion technique
Pseudomonas aeruginosa [10] = assay: Antimicrobial activity against Pseudomonas aeruginosa MTCC 741 assessed as growth inhibition after 24 hr by agar streak dilution technique; conditions: MTCC 741, 24 h
Bacillus subtilis [11] = assay: Antimicrobial activity against Bacillus subtilis MTCC 430 assessed as diameter of growth inhibition zone after 24 hr by paper disk diffusion technique
Aspergillus niger [12] = assay: Antimicrobial activity against Aspergillus niger MTCC 282 assessed as growth inhibition after 48 hr by agar streak dilution technique; conditions: MTCC 282, 48 h
Candida albicans [13] = assay: Antimicrobial activity against Candida albicans MTCC 183 assessed as diameter of growth inhibition zone after 24 hr by paper disk diffusion technique

| SMILES | growth inhibition (GI) [1] [%] | MIC [1] [µg/mL] | MIC (Candida albicans [2]) [µg/mL] | diameter of the inhibition zone (DIZ) (Aspergillus niger [3]) [mm] | MIC (Bacillus subtilis [4]) [µg/mL] | diameter of the inhibition zone (DIZ) (Staphylococcus aureus [5]) [mm] | MIC (Escherichia coli [6]) [µg/mL] | diameter of the inhibition zone (DIZ) (Pseudomonas aeruginosa [7]) [mm] | MIC (Staphylococcus aureus [8]) [µg/mL] | diameter of the inhibition zone (DIZ) (Escherichia coli [9]) [mm] | MIC (Pseudomonas aeruginosa [10]) [µg/mL] | diameter of the inhibition zone (DIZ) (Bacillus subtilis [11]) [mm] | MIC (Aspergillus niger [12]) [µg/mL] | diameter of the inhibition zone (DIZ) (Candida albicans [13]) [mm] |
| --- | --- | --- | --- | --- | --- | --- | --- | --- | --- | --- | --- | --- | --- | --- |
| O=C1CSC(c2cc3ccccc3nc2Cl)N1c1ccccc1 (centres undefined) | 92 | 250 (≈ 733 µM) | 100 (≈ 293 µM) | 14 | 100 (≈ 293 µM) | 17 | 100 (≈ 293 µM) | 13 | 100 (≈ 293 µM) | <10 | 100 (≈ 293 µM) | <10 | 100 (≈ 293 µM) | <10 |
| Cc1ccccc1N1C(=O)CSC1c1cc2ccccc2nc1Cl (centres undefined) | 90 | 500 (≈ 1410 µM) | 100 (≈ 282 µM) | <10 | 100 (≈ 282 µM) | <10 | 100 (≈ 282 µM) | <10 | 100 (≈ 282 µM) | <10 | 100 (≈ 282 µM) | <10 | 100 (≈ 282 µM) | <10 |
| Cc1cccc(N2C(=O)CSC2c2cc3ccccc3nc2Cl)c1 (centres undefined) | 90 | 500 (≈ 1410 µM) | 100 (≈ 282 µM) | 19 | 100 (≈ 282 µM) | 18 | 100 (≈ 282 µM) | 16 | 100 (≈ 282 µM) | <10 | 100 (≈ 282 µM) | 17 | 100 (≈ 282 µM) | 13 |
| Cc1ccc(N2C(=O)CSC2c2cc3ccccc3nc2Cl)cc1 (centres undefined) | 94 | 250 (≈ 704 µM) | 100 (≈ 282 µM) | <10 | 100 (≈ 282 µM) | 19 | 100 (≈ 282 µM) | 20 | 100 (≈ 282 µM) | 17 | 62.5 (≈ 176 µM) | 19 | 100 (≈ 282 µM) | 17 |
| O=C1CSC(c2cc3ccccc3nc2Cl)N1c1ccccc1[N+](=O)[O-] (centres undefined) | 93 | 200 (≈ 518 µM) | 100 (≈ 259 µM) | 22 | 62.5 (≈ 162 µM) | 25 | 12.5 (≈ 32.4 µM) | 25 | 25 (≈ 64.8 µM) | 24 | 12.5 (≈ 32.4 µM) | 21 | 50 (≈ 130 µM) | 20 |
| O=C1CSC(c2cc3ccccc3nc2Cl)N1c1cccc([N+](=O)[O-])c1 (centres undefined) | 94 | 100 (≈ 259 µM) | 25 (≈ 64.8 µM) | 24 | 50 (≈ 130 µM) | 26 | 62.5 (≈ 162 µM) | 24 | 12.5 (≈ 32.4 µM) | 22 | 12.5 (≈ 32.4 µM) | 22 | 25 (≈ 64.8 µM) | 23 |
| O=C1CSC(c2cc3ccccc3nc2Cl)N1c1ccc([N+](=O)[O-])cc1 (centres undefined) | 97 | 50 (≈ 130 µM) | 25 (≈ 64.8 µM) | 24 | 50 (≈ 130 µM) | 26 | 62.5 (≈ 162 µM) | 25 | 12.5 (≈ 32.4 µM) | 21 | 12.5 (≈ 32.4 µM) | 23 | 12.5 (≈ 32.4 µM) | 24 |
| O=C1CSC(c2cc3ccccc3nc2Cl)N1c1ccccc1Cl (centres undefined) | 95 | 100 (≈ 266 µM) | 62.5 (≈ 167 µM) | 20 | 12.5 (≈ 33.3 µM) | 21 | 62.5 (≈ 167 µM) | 21 | 50 (≈ 133 µM) | 21 | 25 (≈ 66.6 µM) | 23 | 62.5 (≈ 167 µM) | 21 |
| O=C1CSC(c2cc3ccccc3nc2Cl)N1c1cccc(Cl)c1 (centres undefined) | 97 | 50 (≈ 133 µM) | 100 (≈ 266 µM) | 24 | 12.5 (≈ 33.3 µM) | 26 | 62.5 (≈ 167 µM) | 23 | 25 (≈ 66.6 µM) | 22 | 25 (≈ 66.6 µM) | 24 | 50 (≈ 133 µM) | 20 |
| O=C1CSC(c2cc3ccccc3nc2Cl)N1c1ccc(Cl)cc1 (centres undefined) | 96 | 62.5 (≈ 167 µM) | 50 (≈ 133 µM) | 25 | 12.5 (≈ 33.3 µM) | 23 | 50 (≈ 133 µM) | 24 | 50 (≈ 133 µM) | 23 | 25 (≈ 66.6 µM) | 24 | 12.5 (≈ 33.3 µM) | 22 |
| O=C1CSC(c2cc3ccccc3nc2Cl)N1c1ccc(F)cc1 (centres undefined) | 99 | 12.5 (≈ 34.8 µM) | 25 (≈ 69.7 µM) | 25 | 12.5 (≈ 34.8 µM) | 24 | 25 (≈ 69.7 µM) | 24 | 25 (≈ 69.7 µM) | 23 | 25 (≈ 69.7 µM) | 23 | 12.5 (≈ 34.8 µM) | 24 |
| Cc1cnc(N2C(=O)CSC2c2cc3ccccc3nc2Cl)s1 (centres undefined) | 98 | 25 (≈ 69.1 µM) | 100 (≈ 276 µM) | 24 | 50 (≈ 138 µM) | 24 | 25 (≈ 69.1 µM) | 22 | 50 (≈ 138 µM) | 24 | 50 (≈ 138 µM) | 23 | 62.5 (≈ 173 µM) | 23 |
| O=C(O)c1cn(C2CC2)c2cc(N3CCNCC3)c(F)cc2c1=O [CIPROFLOXACIN] | – | – | – | – | ≤ 1 | 30 | ≤ 1 | 33 | ≤ 1 | 32 | ≤ 1 | 31 | – | – |
| CC[C@@H](CO)NCCN[C@@H](CC)CO [ETHAMBUTOL] | 99 | 3.12 (≈ 15.3 µM) | – | – | – | – | – | – | – | – | – | – | – | – |
| CC(=O)N1CCN(c2ccc(OCC3COC(Cn4ccnc4)(c4ccc(Cl)cc4Cl)O3)cc2)CC1 (centres undefined) [KETOCONAZOLE] | – | – | ≤ 1 | 30 | – | – | – | – | – | – | – | – | ≤ 3 | 33 |
| NC(=O)c1cnccn1 [PYRAZINAMIDE] | 99 | 6.25 (≈ 50.8 µM) | – | – | – | – | – | – | – | – | – | – | – | – |
